Where two headings read alike, the source gives them in different places.
What was measured:
[1] = tested on: THLE or HepG2 cells, isolated mitochondria, BSEP; details: cited from earlier work
[2] = Plasma free fraction (fu) and unbound Cmax (Cmax,u); type: in vitro ADME, human; details: unbound plasma Cmax
Procedure: The prediction of DILI severity was evaluated further using the 3D combined HCI assays using plasma-free fraction. The majority of fu values were obtained from literature, when unavailable in-house prediction was utilised. Unbound plasma Cmax concentrations (Cmax,u) were derived by multiplying total plasma Cmax with the corresponding free fraction (fu) for each compound.

[3] = tested on: HepG2 cells, primary human hepatocytes; details: In vitro Assay; ref Garside 2014; cited from earlier work
HepaRG spheroids = assay: Combined HCI (HCS) and cellular ATP 3D assay in HepaRG spheroids
Upcyte human hepatocytes = details: In vitro Assay; ref Tolosa 2019; cited from earlier work
rBsep = details: In vitro Assay; ref Dawson 2012; cited from earlier work
[4] = plasma free fraction; cited from earlier work
[5] = cited from earlier work
HepG2 cells [6] = details: cited from earlier work
HepG2 cells [7] = details: cited from earlier work; remark: listed apart in the source
[8] = read-out: Human plasma Cmax; total plasma Cmax.tot, median of 9 literature references; cited from earlier work
[9] = tested on: THLE-Null and THLE-3A4 cells; details: In vitro Assay; ref Gustafsson 2014; cited from earlier work
hLiMTs = assay: Combined HCI (HCS) and cellular ATP 3D assay in hLiMTs
[10] = cited from earlier work; remark: listed apart in the source
[11] = Modeled in vitro assays (cytotoxicity, mitochondrial dysfunction, BSEP), ref Aleo et al. 2019
[12] = Microtissue model structural based (HCI), combined HCS and ATP, MEC < 25 × Cmax.tot cut-off

## C[N+](C)(C)CC(=O)O [betaine, reference compound]
[1]; In vitro Assay, ref Aleo 2019
  Partition Hybrid HRM Score: -VE
  Ro2 Hybrid HRM Score: -VE
[1]; [11]
  Partition Hybrid HRM Score ≥4, Aleo (2019): -VE
  Partition Hybrid HRM Score ≥8, Aleo (2019): -VE
  Rule of Two hybrid HRM Score ≥3, Aleo (2019): -VE
  Rule of Two hybrid HRM Score ≥8, Aleo (2019): -VE
[2]
  Human plasma Cmax,u: 717.446 µM
[3]
  Cluster 1-6 +VE Assay: -VE
HepaRG spheroids; HepaRG, ATP endpoint, cut-off <25x Avg Cmax
  HepaRG <25x Avg Cmax ATP: -ve
HepaRG spheroids; HepaRG, ATP endpoint, cut-off <100x Avg Cmaxu
  HepaRG <100x Avg Cmaxu ATP: -ve
HepaRG spheroids; HepaRG, HCS endpoints, cut-off <25x Avg Cmax
  HepaRG <25x Avg Cmax HCS: -ve
HepaRG spheroids; HepaRG, HCS endpoints, cut-off <100x Avg Cmaxu
  HepaRG <100x Avg Cmaxu HCS: -ve
HepaRG spheroids; HepaRG, all endpoints (ATP and HCS), cut-off <25x Avg Cmax
  HepaRG <25x Avg Cmax All: -ve
HepaRG spheroids; HepaRG, all endpoints, Cmax max used
  HepaRG Cmax max All: -ve
HepaRG spheroids; HepaRG, all endpoints, Cmax min used
  HepaRG Cmax min All: -ve
HepaRG spheroids; HepaRG, all endpoints, cut-off <10 uM
  HepaRG <10 uM All: -ve
HepaRG spheroids; HepaRG, all endpoints, cut-off <100x Avg Cmaxu
  HepaRG <100x Avg Cmaxu All: -ve
HepaRG spheroids; [12]
  DILI prediction HepaRG spheroids (HCS-MEC): -VE
Upcyte human hepatocytes
  Upcytes multi donor assay 14day data: -VE
rBsep
  Inhibition of rBsep cutoff<1& cmax u>.2: -VE
  Inhibition of rBsep cutoff<3: -VE
[4]
  fu: 0.760
[5]; Chen et al. 2016 or literature alignment, ref Chen et al. 2016
  Assigned DILI category: 1
[5]; ref Aleo 2019
  In vivo DILI: -VE
[5]; ref Dawson 2012
  In vivo DILI: -VE
[5]; ref Garside 2014
  In vivo DILI: -VE
[5]; ref Gustafsson 2014
  In vivo DILI: -VE
[5]; ref O'Brien 2006
  In vivo DILI: -VE
[5]; ref Tolosa 2012
  In vivo DILI: -VE
[5]; ref Tolosa 2019
  In vivo DILI: -VE
HepG2 cells [6]; In vitro Assay, ref Tolosa 2012
  Structural based (HCI): -VE
HepG2 cells [6]; Structural based (HCI), HepG2, ref Tolosa et al. 2012
  DILI in vitro assay prediction, Tolosa (2012): -VE
HepG2 cells [7]; In vitro Assay, ref O'Brien 2006
  Structural based (HCI): +VE
HepG2 cells [7]; Structural based (HCI), HepG2, ref O'Brien et al. 2006
  DILI in vitro assay prediction, O'Brien (2006): +VE (lowest HCI endpoint IC50 (or in the absence of dose–response < 100 µM) < 30 × total human plasma exposure levels (Cmax.tot))
[8]
  Cmax: 944 µM
[9]
  THLE-Null: -VE
  THLE-Null/3A4: -VE
hLiMTs; [12]
  DILI prediction hLiMTs (HCS-MEC): -VE
hLiMTs; hLiMTs, ATP endpoint, cut-off <25x Avg Cmax
  hLiMTs <25x Avg Cmax ATP: -ve
hLiMTs; hLiMTs, ATP endpoint, cut-off <100x Avg Cmaxu
  hLiMTs <100x Avg Cmaxu ATP: -ve
hLiMTs; hLiMTs, HCS endpoints, cut-off <25x Avg Cmax
  hLiMTs <25x Avg Cmax HCS: -ve
hLiMTs; hLiMTs, HCS endpoints, cut-off <100x Avg Cmaxu
  hLiMTs <100x Avg Cmaxu HCS: -ve
hLiMTs; hLiMTs, all endpoints (ATP and HCS), cut-off <25x Avg Cmax
  hLiMTs <25x Avg Cmax All: -ve
hLiMTs; hLiMTs, all endpoints, Cmax max used
  hLiMTs Cmax max All: -ve
hLiMTs; hLiMTs, all endpoints, Cmax min used
  hLiMTs Cmax min All: -ve
hLiMTs; hLiMTs, all endpoints, cut-off <10 uM
  hLiMTs <10 uM All: -ve
hLiMTs; hLiMTs, all endpoints, cut-off <100x Avg Cmaxu
  hLiMTs <100x Avg Cmaxu All: -ve
[10]; LTKB DILIrank category, ref Chen et al. 2016
  DILI severity category (Chen et al. [2016]): No
[10]; human DILI classification, LTKB DILIrank, ref Chen et al. 2016
  DILI severity category (Chen 2016): No
[10]; human DILI severity, ref Chen et al.
  DILI severity category: No
[10]; ref Chen 2016
  DILI +VE (5-8), DILI -VE (-4): -VE
  DILI severity category: vNo-DILI-Concern

— article PMC7395068, “The evolution of strategies to minimise the risk of human drug-induced liver injury (DILI) in drug discovery and development” (Archives of Toxicology, 2020)
